Experimental data taken from PMC5751115, “Screening In Vitro Targets Related to Diabetes in Herbal Extracts from Peru: Identification of Active Compounds in Hypericum laricifolium Juss. by Offline High-Performance Liquid Chromatography” (International Journal of Molecular Sciences, 2017).
One block for each molecule: values may come before it.

Legend:
α-glucosidase [1] = test: α-Glucosidase inhibitory assay; assay type: biochemical
Experimental: α-Glucosidase inhibitory activity was determined using a previously reported method with slight modifications. The initial concentration of the enzyme solution was 0.015 mg/mL in 0.1 M phosphate buffer (pH 6.9) and the initial concentration of the substrate solution was 1 mM in the same phosphate buffer. The enzyme solution was mixed in a clear 96-well microplate (flat bottom) and the reaction was initiated by the addition of the substrate to the solution. The plates were incubated at 37 °C for 10 min.

[2] = target: rat lens aldose reductase (RLAR) (Rattus norvegicus, UniProt P07943); test: Rat lens aldose reductase (RLAR) assay; assay type: biochemical; conditions: for IC50 / AR IC50 (μM): Table 3, isolated compounds, means ± SD (n = 3), NA is not active; for IC50: read-out: AR IC50
Experimental: The rat lenses (RL) were prepared as follows: the RL were removed from the eyes from 10-week-old Sprague-Dawley rats (weight = 250–280 g) and frozen until required. The rats were housed in a standardized laboratory environment with a 12 h light/12 h dark cycle at constant room temperature (22 ± 1 °C) and humidity (6 ± 5%) before experimentation. All animals had free access to water and food.
The AR inhibitory activities were evaluated using RLAR. Prior to analysis, the lenses were homogenized in 0.1 M phosphate buffer saline (pH 6.2) and subsequently centrifuged at 10,000× g for 30 min at 4 °C. The rat lens aldose reductase (RLAR)-containing supernatant was then collected. A substrate comprising 531 μL 0.1 M potassium buffer (pH 7.0), 90 μL NADPH solution (1.6 mM in potassium buffer), 90 μL RLAR homogenate (6.5 U/mg), 90 μL ammonium sulfate solution (4 M in potassium buffer), and 90 μL DL-glyceraldehyde (25 mM in potassium buffer) was placed into a 1.0-mL cuvette and mixed with 9 μL sample (1 mg/mL dissolved in DMSO). RLAR activity was assessed spectrophotometrically by measuring the decrease in NADPH absorption at 340 nm over a 4 min period.

[3] = DPPH free radical scavenging assay; conditions: for IC50 / Antioxidants DPPH IC50 (μM): Table 3, isolated compounds, NA is not active; for IC50: read-out: Antioxidants DPPH IC50
Experimental: The DPPH free radical scavenging activity was determined as previously described with slight modifications. […] After 15 min incubation in the darkroom, the absorbance change at 570 nm was measured on a microplate reader (EL800 Universal Microplate reader, BioTek Instruments, Winooski, VT, USA). L-Ascorbic acid was used as positive control.

[4] = ABTS free radical scavenging assay; conditions: for IC50 / Antioxidants ABTS IC50 (μM): Table 3, isolated compounds, NA is not active; for IC50: read-out: Antioxidants ABTS IC50
Experimental: The ABTS free radical scavenging activity was determined using ABTS radical cations (ABTS^+) with slight modifications [34]. Briefly, potassium persulfate (3.5 mM) and ABTS diammonium salt (2.0 mM) were mixed, diluted in distilled water, and subsequently allowed to stand in the dark at room temperature for 24 h before use, to allow free radical generation. To determine the scavenging activity, the absorbance was recorded at 750 nm using an EL-800 Universal microplate reader (BioTek Instrument Inc., Winooski, VT, USA) after incubating the sample solutions (10 µL, 1 mg/mL, 0.5 mg/mL in methanol) with ABTS solution (290 µL) for 10 min in a 96-well plate. Trolox was used as a positive control.

[5] = target: T1, Human recombinant AR (HRAR) (Homo sapiens, UniProt P15121); test: HRAR ultrafiltration-HPLC assay; assay type: binding; conditions: peak in HL 70% MeOH extract 0.1 mg/mL; HRAR 3.9 μM
T1 construct: purchased Wako Pure Chemical Industries Co. (Osaka, Japan)
Experimental: The AR Inhibitors (ARIs) present in HL were profiled using a newly developed AR ultrafiltration assay. Specifically, the HL sample (final concentration = 0.1 mg/mL) was incubated with 0.6 M ammonium sulfate and 3.9 μM HRAR (Human recombinant AR) in a total volume of 300 μL at 37 °C for 30 min. The incubated mixture was then filtered by centrifugation at 5167× g for 30 min at room temperature using a Microcon YM-10 centrifugal filter unit. The filtrate was subsequently analyzed by HPLC (Section 3.9). The sample incubated without HRAR was used as control.

[6] = Offline ABTS-HPLC analysis; conditions: peak area reduction in HL 70% MeOH extract after ABTS
Experimental: Offline ABTS-HPLC was investigated by modifying a previously reported protocol. Briefly, 10 μL of 70% methanol extract from HL (20 mg/mL) was mixed with 140 μL ABTS solution that was prepared one day in advance. The mixture was then incubated at room temperature for 10 min and subsequently filtered through a 0.45 μm filter. The filtrate was analyzed by HPLC (Section 3.9). The methanol extract of HL (20 mg/mL in MeOH was used as control. The detector monitored the eluent at a wavelength of 300 nm and the % QR was calculated as described in Section 3.11.

α-glucosidase [7] = test: α-Glucosidase ultrafiltration-HPLC assay; assay type: binding; conditions: peak in HL 70% MeOH extract 0.1 mg/mL; α-glucosidase 3.9 μM
Experimental: The α-glucosidase present in the HL was profiled using a newly developed α-glucosidase ultrafiltration assay. Specifically, the HL 30 μL sample (final concentration = 0.1 mg/mL) was incubated with α-glucosidase (3.9 μM) in PBS (300 μL, pH 7.0) at 37 °C for 30 min. The incubated mixture was then filtered by centrifugation at 5167× g for 30 min at room temperature using a Microcon YM-10 centrifugal filter unit (Millipore, Bedford, MA, USA). The filtrate was subsequently analyzed by HPLC on a Dionex system (Dionex, Sunnyvale, CA, USA) consisting of a P850 pump, an ASI-100 automated sample injector, a Synergi Hydro-RP 80A column (150 mm × 4.6 mm, 4 μm; Phenomenex, Torrance, CA, USA) maintained at 30 °C, and a UVD170S detector. The injection volume was 10 μL and the flow rate of the mobile phase was 0.7 mL/min. The mobile phase compositions were as follows: 0.1% trifluoroacetic acid (A-line) and methanol (B-line). The gradient elution system was modified as follows: 0–35 min, starting with 5% B-line, programmed to reach 40% B-line at 15 min using a linear gradient, followed by 100% B-line from 15–35 min. The detector monitored the eluent at a wavelength of 254 nm. The sample incubated without α-glucosidase was used as control.

[8] = Offline DPPH-HPLC analysis; conditions: peak area reduction in HL 70% MeOH extract after DPPH
Experimental: The DPPH radical assay was modified by an offline DPPH-HPLC assay. […] After incubation (15 min) in the dark room, the mixture was filtered through a 0.45-μm membrane and subsequently analyzed by HPLC (Section 3.9). The sample incubated with methanol was used as control. The decreases in peak area were expressed as the % quantitative reduction (% QR), calculated from the equation: % QR = (A − B)/A × 100%, where A and B are the HPLC peak areas of the compound incubated without and with the DPPH methanol solution, respectively.

[9] = means ± SD (n = 3), listed as Quercetin (7)

IC50 [2]: 0.23 µM
total binding degree (TBD), HRAR ultrafiltration-HPLC [5]: ~ 20%
SMILES: O=C(/C=C/c1ccc(O)c(O)c1)O[C@@H]1C[C@](O)(C(=O)O)C[C@@H](O)[C@H]1O [Compound 3, chlorogenic acid]

AR IC50 (μM) [2]: inactive
Antioxidants DPPH IC50 (μM) ([3]; means ± SD (n = 3)): inactive
Antioxidants ABTS IC50 (μM) ([4]; means ± SD (n = 3)): inactive
SMILES: COc1cc(C(=O)O)ccc1O [Compound 4, vanillic acid]

IC50 [2]: 6 ± 1.1 µM
IC50 ([3]; means ± SD (n = 3)): 58.8 ± 2.1 µM
IC50 ([4]; means ± SD (n = 3)): 11 ± 0.2 µM
total binding degree (TBD), HRAR ultrafiltration-HPLC [5]: 30%
SMILES: O=C(O)[C@H]1O[C@@H](Oc2c(-c3ccc(O)cc3)oc3cc(O)cc(O)c3c2=O)[C@H](O)[C@@H](O)[C@@H]1O [Compound 6, kaempferol 3-O-glucuronide]

IC50 [2]: 9.7 ± 0.5 µM
IC50 ([3]; means ± SD (n = 3)): 326 ± 3.3 µM
IC50 ([4]; means ± SD (n = 3)): 191.8 ± 1.1 µM
total binding degree (TBD), HRAR ultrafiltration-HPLC [5]: < 20%
SMILES: O=c1c(O)c(-c2ccc(O)cc2)oc2cc(O)cc(O)c12 [Compound 8, kaempferol]
% quantitative reduction (QR), offline DPPH-HPLC [8]: 51%
quantitative reduction percentage (QR), offline ABTS-HPLC [6]: 54%

DPPH IC50 ([3]; Table 2, means ± SD (n = 3)): 17.6 ± 0.1 µg/mL
SMILES: O=C1O[C@H]([C@@H](O)CO)C(O)=C1O [L-Ascorbic, L-ascorbic acid, reference compound]
DPPH Inhibition (%) ([3]; Table 2, L-ascorbic acid at 71 μg/mL): 99.1 ± 0%

ABTS IC50 ([4]; Table 2, means ± SD (n = 3)): 4.6 ± 0.1 µg/mL
IC50 ([4]; means ± SD (n = 3)): 18.8 ± 0.5 µM
SMILES: Cc1c(C)c2c(c(C)c1O)CCC(C)(C(=O)O)O2 (centres unmarked) [Trolox, 6-hydroxy-2,5,7,8-tetramethylchroman-2-carboxylic acid, reference compound]
ABTS Inhibition (%) ([4]; Table 2, trolox at 17 μg/mL): 100 ± 0.1%

More lines, now with the values behind:

SMILES: C[C@H]1O[C@H](O[C@H]2[C@H](O)[C@@H](O)[C@@H](O[C@H]3[C@H](O)[C@@H](O)C(O)O[C@@H]3CO)O[C@@H]2CO)[C@H](O)[C@@H](O)[C@@H]1N[C@H]1C=C(CO)[C@@H](O)[C@H](O)[C@H]1O (some centres unmarked) [Acarbose, acarbose, reference compound]
α-Glucosidase Inhibition (%) (α-glucosidase [1]; Table 2, 500 μg/mL): 55.82 ± 2.3%

SMILES: O=C(O)c1ccc(O)c(O)c1 [Compound 1, protocatechuic acid]
IC50 [2]: 16.9 ± 1.9 µM
IC50 ([3]; means ± SD (n = 3)): 263.4 ± 0.2 µM
IC50 ([4]; means ± SD (n = 3)): 9.7 ± 0.9 µM

SMILES: O=C(O)c1ccc(O)cc1 [Compound 2, p-hydroxybenzoic acid]
AR IC50 (μM) [2]: inactive
Antioxidants DPPH IC50 (μM) ([3]; means ± SD (n = 3)): inactive
Antioxidants ABTS IC50 (μM) ([4]; means ± SD (n = 3)): inactive

SMILES: O=C(O)/C=C/c1ccc(O)c(O)c1 [Compound 5, caffeic acid]
IC50 [2]: 28.3 ± 0.9 µM
IC50 ([3]; means ± SD (n = 3)): 47.2 ± 0.1 µM
IC50 ([4]; means ± SD (n = 3)): 7.2 ± 1.1 µM
quantitative reduction percentage (QR), offline ABTS-HPLC [6]: 76%

SMILES: O=c1c(O)c(-c2ccc(O)c(O)c2)oc2cc(O)cc(O)c12 [Compound 7, quercetin]
α-glucosidase percentage inhibition (α-glucosidase [1]; isolated compound, Figure 2, 50 μg/mL): 91%
IC50 [3, 9]: 0.33 µM
IC50 [4, 9]: 0.33 ± 0.6 µM
total binding degree (TBD), α-glucosidase ultrafiltration-HPLC (α-glucosidase [7]): 61.57%
% quantitative reduction (QR), offline DPPH-HPLC [8]: 42.8%
quantitative reduction percentage (QR), offline ABTS-HPLC [6]: > 80%

SMILES: O=c1c(O)c(-c2ccc(O)c(O)c2)oc2cc(O)cc(O)c12 [Quercetin, quercetin, reference compound]
inhibition at 10 µg/mL ([2]; read-out: AR Inhibition (%)): 83.7 ± 2.6%
